Literature values in US20220117915A1, “METHODS OF TREATING ACUTE STRESS DISORDER AND POSTTRAUMATIC STRESS DISORDER” (Tonix Pharma Holdings Limited, priority 2018, published 2022).

Tests used:
[1] = ASD or very early PTSD
[2] = target: serotonergic-2A (5-HT2A) receptor (Homo sapiens, UniProt P28223)
[3] = target: alpha-adrenergic-1A (α1A) receptor (Homo sapiens, UniProt P35348)
alpha-adrenergic-1A (α1A) receptor, sequence (P35348 whole entry): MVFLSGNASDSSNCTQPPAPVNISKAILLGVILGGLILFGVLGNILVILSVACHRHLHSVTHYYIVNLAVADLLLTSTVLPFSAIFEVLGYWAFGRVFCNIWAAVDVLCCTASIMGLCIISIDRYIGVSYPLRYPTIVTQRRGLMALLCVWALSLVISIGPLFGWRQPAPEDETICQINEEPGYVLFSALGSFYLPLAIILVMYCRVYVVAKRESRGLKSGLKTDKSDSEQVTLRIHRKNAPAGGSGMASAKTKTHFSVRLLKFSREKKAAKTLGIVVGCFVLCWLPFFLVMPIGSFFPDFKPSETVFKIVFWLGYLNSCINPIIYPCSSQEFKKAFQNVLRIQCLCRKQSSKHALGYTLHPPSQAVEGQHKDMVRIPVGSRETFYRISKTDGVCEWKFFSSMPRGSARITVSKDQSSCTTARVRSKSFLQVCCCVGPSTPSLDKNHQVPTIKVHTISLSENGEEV

serotonergic-2A (5-HT2A) receptor, sequence (P28223 whole entry, species assumed): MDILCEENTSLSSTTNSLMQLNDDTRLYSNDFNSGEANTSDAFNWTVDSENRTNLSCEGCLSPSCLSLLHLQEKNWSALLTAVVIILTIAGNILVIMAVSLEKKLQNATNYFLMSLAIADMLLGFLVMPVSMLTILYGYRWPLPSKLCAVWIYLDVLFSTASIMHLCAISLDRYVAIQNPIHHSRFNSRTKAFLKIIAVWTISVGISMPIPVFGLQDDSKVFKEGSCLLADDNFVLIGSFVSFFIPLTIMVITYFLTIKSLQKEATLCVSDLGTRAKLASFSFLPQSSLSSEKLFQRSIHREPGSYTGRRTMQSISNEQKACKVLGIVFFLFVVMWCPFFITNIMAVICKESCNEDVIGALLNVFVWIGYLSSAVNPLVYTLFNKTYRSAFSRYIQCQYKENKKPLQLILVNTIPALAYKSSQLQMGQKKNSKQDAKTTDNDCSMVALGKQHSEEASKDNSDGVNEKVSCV

Fc1ccc([C@@H]2CCNC[C@H]2COc2ccc3c(c2)OCO3)cc1 [paroxetine]
efficacy as a PTSD treatment (long-standing PTSD, average of 15 years since the trauma): offered patients with long-standing PTSD relief
improvement by time since trauma (trauma more than 5 years prior to treatment versus more recent trauma): greater improvement

CN(C)CCC[C@@]1(c2ccc(F)cc2)OCc2cc(C#N)ccc21 [escitalopram]
preventing development of PTSD versus placebo [1]: failed to perform any better than the placebo

CN(C)CCC=C1c2ccccc2C=Cc2ccccc21 [Cyclobenzaprine, 3-(5H-dibenzola[a,d]cyclohepten-5-ylidene)-N,N-dimethyl-1 propanamine]
5-HT2A receptor antagonist activity [2]: potent
α1A receptor antagonist activity [3]: potent
